We go through one compound from US9108045B2, “Method and apparatus for optical inhibition of photodynamic therapy” (The General Hospital Corporation, priority 2007, dated 2015).

In data set [1] the test system is anterior ear skin of swine. The format is in vivo. On the procedure: Studies of ALA metabolism and porphyrin accumulation rates have been performed in anterior ear skin of swine. Such tissue bears many similarities to facial skin tissue in humans with respect to size and location of relevant tissue layers and target regions such as hair follicles and sebaceous glands. Topical 20% ALA in a water/alcohol solution was applied to the skin tissue, and formation of photosensitizers was analyzed based on quantitative fluorescence analysis of porphyrins formed from the ALA.
Overall porphyrin fluorescence was not observed until about 30-45 minutes after application of the ALA solution, although epidermis fluorescence measurement was statistically significant after only 15 minutes following the ALA application. Between about 30 and 120 minutes following application of the ALA solution, epidermis, hair follicles, and sebaceous glands became progressively more fluorescent. […] Fluorescence in all sites reached a maximum intensity between about 75 and 180 minutes after application of the ALA solution.

Data set [2] concerns skin. Put plainly: Clinical suppression of superficial porphyrin synthesis by inhibiting light during ALA metabolism. The format is in vivo. The text has this:
In further embodiments, superficial porphyrin accumulation resulting from topical application of ALA may be suppressed by blue light exposure during ALA metabolism. For example, a topical solution of 20% ALA can be applied to a region of skin. The region of skin can then be exposed to low level irradiance 410 nm blue light to inhibit accumulation of porphyrins. This light can be applied during the period of ALA metabolism, e.g., immediately after the application of the topical ALA solution or later in time. […] Here, clinical suppression refers to a diminished response of the tissue to treatment radiation in subsequent PDT procedures.

In the next data set the test system is skin of a pig. The experiment in a line: Example 2: blue light through attenuating films during ALA incubation; porphyrin accumulation by fluorescence. The format is in vivo. Conditions: 20% topical ALA, 410 nm blue light 2.6 mW/cm^2 for 3 hours through attenuating films, 100% to 17% transmittance (0.4 mW/cm^2). On the procedure: In accordance with embodiments of the present invention, 20% topical ALA was applied to the skin of a pig. Nine different areas were divided and different attenuating films were placed over the skin during the entire incubation time (or the metabolism period). The attenuating films reduced the light transmittance allowing a range of irradiance varying from 100%, 56%, 44%, 35%, 26%, 21%, 19% to 17% of light during the incubation period.
Immediately after the drug application, a 410 nm blue light was irradiated through all the experiment sites at an irradiance of 2.6 mW/cm^2 for 3 hours. During this period, porphyrin accumulation was measured in each test area by digital fluorescence photography (˜410 nm excitation, >600 nm emission), and microscopically determined by fluorescence microscopy of skin biopsies (8 mm diameter) obtained prior to light exposure. After the 3 hours of incubation, red light at 635 nm exposure with 200 J/cm^2 fluence was delivered at 100 mW/cm^2 irradiance, provided by an LED array source (Omnilux, PhotoTherapeutics LTD, Cheshire UK). Measurements and biopsies were repeated after 24 hours, prior to euthanasia.

A further data set concerns human skin. The experiment in a line: Example 1: suppression of epidermal porphyrin accumulation by blue light exposure during ALA metabolism. The following applies: 20% topical ALA, 410-nm blue light 1.47 mW/cm^2 during 2 hours incubation, then 632-nm light 100 J/cm^2. Format: in vivo.
Data set [3] relates to skin. Put plainly: Example 1: cooling and heating plates applied to skin after topical and injected ALA; porphyrin synthesis and skin photosensitization. The format is in vivo. The method, then:
When a skin surface is cooled, there can be a gradient of temperature such that ALA metabolism might favor the warm dermis. To examine this effect, cooling and heating plates were applied to skin after topical and injected ALA administration, and porphyrin synthesis and skin photosensitization were then determined.

Data set [4] deals with moderate to severe inflammatory acne. Format: in vivo, human. Conditions: both sides of the face. On the procedure: A 20% ALA solution (Dusa Pharmaceutics) was applied topically to the patient's face. The right side of the patient's face was covered with saran wrap and aluminum foil for 3 hours of incubation (to provide a conventional PDT treatment), while blue light at very low intensity (an inhibiting radiation) was applied to the left side of the patient's face for 3 hours (using a Clearlight at […], provided about 2 meters from the patient).
After the incubation period, both sides of the face were irradiated with red light treatment radiation (635 nm wavelength, at about 180 J/cm^2, using an Aktilite). During the red light irradiation, the patient indicated a subjective pain score of about 9-10 (on a 0-10 scale, with 0 being no pain, 5 being moderate pain, and 10 being maximum pain) on the right side of their face receiving conventional PDT treatment.

Description for human skin: Suppression of epidermal porphyrin accumulation by blue light exposure during ALA metabolism, in accordance with exemplary embodiments of the present invention, was tested in humans. With reference to FIG. 6, a 20% topical ALA solution was applied to human skin 610, covered with aluminum foil 620, while only some uncovered areas received 410-nm blue light (1.47 mW/cm^2) 630 during the incubation time. A fluorescent photo 640 was taken after 2 hours of incubation, and 632-nm light (100 J/cm^2) was then applied to all areas 650. A clinical photograph 660 was taken after PDT treatment.

Consider `NCC(=O)CCC(=O)O` [ALA, 5-aminolevulinic acid], for which the “fluorescence of hair follicles and sebaceous glands relative to other sites (trend)” value in data set [1] (in vivo) was “stronger fluorescence compared with epidermis and eccrine glands”. Besides, the “time after application at which epidermis fluorescence measurement was statistically significant” value in data set [1] (swine) worked out at 15 min. In data set [1] (swine, in vivo), the “time after application at which fluorescence reached maximum intensity” value fell in the range of 75 to 180 min, the “time after application until overall porphyrin fluorescence was observed” value is 30 to 45 min, the “time at which eccrine gland fluorescence was first detected” value is given as “about 30 minutes” and the “time at which sebaceous glands started to show fluorescence” value lay within 45 to 75 min. Also, in the data set on skin [2] (red light 633 nm, irradiance about 14-40 mW/cm^2), the “clinical suppression of superficial porphyrin synthesis” value is “some clinical suppression”. For the same compound, the “clinical suppression of epidermal and/or superficial porphyrin synthesis” value in the data set with skin [2] (topical 20% ALA, blue light 415 nm, irradiance about 10-30 mW/cm^2 during ALA metabolism) is “almost complete clinical suppression”. Also, in the data set on skin [2] (topical 20% ALA, blue light, irradiance about 60 μW/cm^2 to 3 mW/cm^2), the “suppression of photosensitizer formation” value was “Some suppression”. For the same compound, the “clinical suppression of photosensitizer formation” value in the data set with skin [2] (topical 20% ALA, blue light, irradiance less than about 30 μW/cm^2) was “No clinical suppression”. Besides, the “porphyrin accumulation under blue light” value in the data set on skin of a pig was “inhibition of porphyrin accumulation in all sites down to 17% light transmittance”. Moreover, the “porphyrin accumulation and subsequent PDT reactions” value in the data set on human skin is “suppressed”. The “conversion of epidermal ALA to porphyrins” value in the data set on skin [3] (skin cooling to less than about 20° C., topical and injected ALA) was “significantly suppress”. In the data set with skin [3] (skin surface temperature 20° C.), the dermal porphyrin synthesis result is given as “partially suppressed”. The “acne outcome after four weeks” value in data set [4] is “no new inflammatory acne”.
